The values below come from patent US7192967B1, “Cyclic imide-substituted pyridylalkane, alkene, alkine carboxamides useful as cytostatic and immunosuppressive agents” (Astellas Pharma GmbH, priority 1997, dated 2007).

In test [1] the test system is HepG2 cells derived from a human liver carcinoma. Description: Growth inhibition of HepG2 cells, sulforhodamin-B-method, six days. The test is classed as cell-based. As to conditions: six days of substance incubation. As for the experimental part:
HepG2 cells derived from a human liver carcinoma plated at a density of 20,000 cells/ml in 12-well plastic dishes. Cultivation occurred in Richters IMEM-ZO nutrient medium with 5% foetal calf serum (FCS) in a tissue culture incubator with a gas mixture of 5% CO2 and 95% air at a temperature of 37° C. One day after plating, the culture medium was aspirated from the cells and replaced by fresh medium which contained the respective concentrations of the test substances. For the individual concentrations and the controls without test substances, three-fold batches were done for each. Three days after the beginning of treatment, the medium was again renewed with the test compounds. After six days of substance incubation, the test was ended and the protein amount in the individual wells was determined with the sulforhodamin-B-method (according to P. Skehan et al.: New Colorimetric Cytotoxicity Assay for Anticancer-Drug Screening. J. Natl. Cancer Inst. 82: 1107–1112, 1990). The IC50-values (defined as that concentration in which the cell growth was inhibited by 50%) was taken from the dose-response curves and given as a comparative measurement for the activity of the test compounds.

In test [2] the test system is lymphocytes from the spleen of a Swiss mouse. Kind of test: Immunosuppressing activity on freshly isolated lymphocytes, vital cells by flow-through cytometer after 2 days. It counts as cell-based. As to conditions: vital cells after 2 days. An excerpt: Many anti-tumor agents have not only a cytotoxic effect on tumor cells, but also on the blood cell system. This leads to a weakening of the immune defence, which can, in turn, be specifically employed to suppress the rejection reaction after an organ transplantation for example. Also use of the main compounds, optionally in combination with other immunological diseases (for example, psoriasis or autoimmune diseases) seems likely. In order to test the possibility for a therapeutic use in illnesses of this type, the substance activity was tested on freshly isolated lymphocytes as follows:
The spleen of a Swiss mouse served as a lymphocyte source. The lymphocyte population was isolated from the spleen cell suspension over a ficoll gradient and taken up in IMEM-ZO culture medium with 0.1% dextran 70,000 and 2% foetal calf serum. […] Subsequently, 10,000 cells per each sample were measured on a flow-through cytometer and the percentage amount of vital cells in the population was determined. By means of the dose-response curves, IC50-values were calculated which were also employed in the following Tables for the characterization of the individual substances: […]

With “N-[6-(2,5-dioxo-3,4-diphenyl-2,5-dihydropyrrol-1-yl)-hexyl])-3-pyridin-3-yl-acrylamide [substance 58]”, the IC50 in test [1] came out at 500 nM; in test [2], 60 nM.
